Reference: article PMC6277767, “Broad and Region-Specific Impacts of the Synthetic Cannabinoid CP 55,940 in Adolescent and Adult Female Mouse Brains” (Frontiers in Molecular Neuroscience, 2018)

System: CD1 female mouse brain lipidome
Assay: Brain-region lipid levels (HPLC/MS/MS lipidomics) 2 h after single i.p. 3 mg/kg CP 55,940 vs vehicle
Assay type: in vivo
Design: N-arachidonoyl phenylalanine level, Mean / N-stearoyl tryptophan level, Mean / N-stearoyl proline level, Mean / N-stearoyl leucine level, Mean / N-stearoyl phenylalanine level, Mean / N-stearoyl serine level, Mean / N-stearoyl methionine level, Mean: unit: moles per gram
Procedure: The Bloomington Institutional Animal Care and Use Committee of Indiana University reviewed and approved the animal procedures. Female mice from the CD1 strain were utilized to match our study examining THC’s effects on the brain lipidome ([Leishman et al., 2018]). Mice were given a single i.p. injection of either 3 mg/kg CP or 1:1:18 cremophor:ethanol:saline vehicle (please refer to the section “3 mg/kg CP Is Relevant for Synthetic Cannabinoid Abuse and Has Stronger Effects on the Female Mouse Brain Lipidome During Adolescence” for a justification of dose and use of female mice). Three different age groups were given injections: PND 35 and PND 50 adolescents, and adult mice (PND 113). At least eight mice in each age group received CP and at least eight received vehicle. Matching the THC study time course ([Leishman et al., 2018]), mice were sacrificed via rapid decapitation 2 h after injection. Brains were immediately removed and flash-frozen in liquid nitrogen, and then stored at -80°C until dissections were performed. Brains were dissected on an ice-cold dissection plate into the following regions: STR, HIPP, CER, THAL, CTX, HYP, MID, and STEM. These abbreviations for these brain areas will be used exclusively when discussing the results generated by these specific dissections. Each dissected area was immediately placed in liquid nitrogen and then stored at -80°C until used for lipid extraction.
Tissue extracts were performed as previously described ([Bradshaw et al., 2006]; [Stuart et al., 2013]; [Raboune et al., 2014]; [Leishman et al., 2016a],[b], [2017], [2018]). First, samples were shock frozen in liquid nitrogen, weighed, and transferred to a centrifuge tube. The mass of the largest sample was multiplied by 50 to determine how many milliliters of HPLC-grade methanol (Fisher, Fair Lawn, NJ, United States) to add. Then, samples were spiked with 500 pmol deuterium-labeled NAGly (d8NAGly; Cayman Chemical, Ann Arbor, MI, United States). Samples were placed on ice in darkness for 2 h then individually homogenized and centrifuged at 19,000 × g for 20 min at 20°C. Supernatants were diluted with HPLC water (purified in house) to make a solution of 75% water, 25% supernatant. Lipids were partially purified on C18 solid phase extraction columns (Agilent, Palo Alto, CA, United States). A series of four elutions with 1.5 mL of 60%, 75%, 85%, and 100% methanol were collected ([Stuart et al., 2013]; [Leishman et al., 2016a],[b], [2018]).
As previously described ([Bradshaw et al., 2006]; [Tan et al., 2006]; [Smoum et al., 2010]; [Stuart et al., 2013]; [Tortoriello et al., 2013]; [Raboune et al., 2014]; [Leishman et al., 2016a],[b], [2017], [2018]), samples were analyzed using an Applied Biosystems API 3000 triple quadrupole mass spectrometer with electrospray ionization (Foster City, CA, United States). Using an Agilent XDB-C18 reversed phase analytical column and optimized mobile phase gradients, 20 μL from each elution were chromatographed. Two Shimadzu 10ADvp pumps (Columbia, MD, United States) provided the pressure for gradient elution. Mobile phase A: 20% methanol, 80% water (v/v) and 1 mM ammonium acetate (Sigma, St. Louis, MO, United States). Mobile phase B: 100% methanol, 1 mM ammonium acetate. Every method run began with 0% mobile phase B, reached 100% mobile phase B flowing at 0.2 mL/min, and gradually returned to 0% mobile phase B.
This screening library will be referred to as the lipidome when discussing data from this study. HPLC/MS/MS data were analyzed using Analyst software (Applied Biosystems) ([Bradshaw et al., 2006]; [Tan et al., 2006]; [Stuart et al., 2013]; [Tortoriello et al., 2013]; [Raboune et al., 2014]; [Leishman et al., 2016a],[b], [2017], [2018]). Chromatograms (Supplementary Figure 3) were generated by determining the retention time of analytes from the analytical column with a [M-1] or [M+1] parent peak and a fragmentation peak corresponding to the programmed values. […]

[1] = cortex, PND 35, 3 mg/kg CP 55,940
[2] = cortex, PND 35 adolescent female mice, 3 mg/kg CP 55,940
[3] = hippocampus, PND 50, 3 mg/kg CP 55,940 vs Veh

SMILES: CCCCCCC(C)(C)c1ccc([C@@H]2C[C@H](O)CC[C@H]2CCCO)c(O)c1 [CP 55,940]
- N-oleoyl valine Magnitude (x Veh level) [1]: 1.33 x Veh level
- N-palmitoyl leucine Direction (rel to Veh) [1]: ↑
- N-palmitoyl leucine, Magnitude (x Veh level) [1]: 1.52 x Veh level
- N-palmitoyl serine Direction (rel to Veh) [1]: ↓
- N-palmitoyl serine, Magnitude (x Veh level) [1]: 0.77 x Veh level
- N-palmitoyl tyrosine Direction (rel to Veh) [1]: ↑
- N-palmitoyl tyrosine Magnitude (x Veh level) [1]: 1.25 x Veh level
- N-palmitoyl valine Direction (rel to Veh) [1]: ↑
- N-palmitoyl valine Magnitude (x Veh level) [1]: 1.57 x Veh level
- N-stearoyl serine Direction (rel to Veh) [1]: ↓
- N-stearoyl serine Magnitude (x Veh level) [1]: 0.84 x Veh level
- N-stearoyl tyrosine Direction (rel to Veh) [1]: ↑
- N-stearoyl tyrosine Magnitude (x Veh level) [1]: 1.46 x Veh level
- N-stearoyl valine Direction (rel to Veh) [1]: ↑
- N-stearoyl valine Magnitude (x Veh level) [1]: 1.32 x Veh level
- PGF2α Direction (rel to Veh) [1]: ↑
- PGF2α Magnitude (x Veh level) [1]: 1.19 x Veh level
- phosphoLEA Direction (rel to Veh) [1]: ↑
- phosphoLEA Magnitude (x Veh level) [1]: 1.51 x Veh level
- 2-arachidonoyl glycerol level, Mean [2]: 1.2E-09
- 2-linoleoyl glycerol level, Mean [2]: 1.12E-10
- 2-oleoyl glycerol level, Mean [2]: 5.02E-09
- 2-palmitoyl glycerol level, Mean [2]: 5.49E-09
- 6-ketoPGF1α level, Mean [2]: 5.64E-12
- Arachidonic acid level, Mean [2]: 1.78E-09
- Linoleic acid level, Mean [2]: 6.06E-10
- N- stearoyl valine level, Mean [2]: 1.46E-12
- N-arachidonoyl GABA level, Mean [2]: 2.26E-11
- N-arachidonoyl alanine level, Mean [2]: 2.81E-12
- N-arachidonoyl dopamine level, Mean [2]: BDL
- N-arachidonoyl ethanolamine level, Mean [2]: 1.13E-10
- N-arachidonoyl glycine level, Mean [2]: 1.35E-11
- N-arachidonoyl methionine level, Mean [2]: 2.69E-13
- N-arachidonoyl phenylalanine level, Mean [2]: 7.25E-13
- N-arachidonoyl proline level, Mean [2]: BDL
- N-arachidonoyl serine level, Mean [2]: 2.41E-12
- N-arachidonoyl taurine level, Mean [2]: 1.3E-10
- N-arachidonoyl tryptophan level, Mean [2]: BDL
- N-arachidonoyl tyrosine level, Mean [2]: 8.47E-13
- N-docosahexaenoyl GABA level, Mean [2]: 4.81E-12
- N-docosahexaenoyl alanine level, Mean [2]: 7.37E-13
- N-docosahexaenoyl ethanolamine level, Mean [2]: 1.21E-10
- N-docosahexaenoyl glycine level, Mean [2]: 1.18E-12
- N-docosahexaenoyl leucine level, Mean [2]: 1.02E-12
- N-docosahexaenoyl phenylalanine level, Mean [2]: 5.48E-13
- N-docosahexaenoyl proline level, Mean [2]: BDL
- N-docosahexaenoyl serine level, Mean [2]: 5.64E-12
- N-docosahexaenoyl tryptophan level, Mean [2]: BDL
- N-docosahexaenoyl tyrosine level, Mean [2]: 5.7E-13
- N-docosahexaenoyl valine level, Mean [2]: 2.57E-13
- N-linoleoyl GABA level, Mean [2]: 3.78E-12
- N-linoleoyl alanine level, Mean [2]: 6.3E-13
- N-linoleoyl ethanolamine level, Mean [2]: 2.31E-10
- N-linoleoyl glycine level, Mean [2]: 3.61E-13
- N-linoleoyl leucine level, Mean [2]: 1.58E-13
- N-linoleoyl phenylalanine level, Mean [2]: 1.48E-13
- N-linoleoyl proline level, Mean [2]: BDL
- N-linoleoyl serine level, Mean [2]: 1.38E-11
- N-linoleoyl tryptophan level, Mean [2]: BDL
- N-nervonoyl valine level, Mean [2]: BDL
- N-oleoyl GABA level, Mean [2]: 9.1E-12
- N-oleoyl alanine level, Mean [2]: 2.8E-12
- N-oleoyl dopamine level, Mean [2]: BDL
- N-oleoyl ethanolamine level, Mean [2]: 4.68E-10
- N-oleoyl glycine level, Mean [2]: 5.53E-12
- N-oleoyl leucine level, Mean [2]: 4.34E-13
- N-oleoyl methionine level, Mean [2]: 4.2E-13
- N-oleoyl phenylalanine level, Mean [2]: 2.01E-12
- N-oleoyl serine level, Mean [2]: 5.9E-11
- N-oleoyl tyrosine level, Mean [2]: 6.76E-13
- N-oleoyl valine level, Mean [2]: 4.65E-13
- N-palmitoyl GABA level, Mean [2]: 1.28E-11
- N-palmitoyl alanine level, Mean [2]: 4.96E-12
- N-palmitoyl ethanolamine level, Mean [2]: 1.43E-10
- N-palmitoyl glycine level, Mean [2]: 1.28E-11
- N-palmitoyl leucine level, Mean [2]: 1.76E-12
- N-palmitoyl methionine level, Mean [2]: 1.41E-12
- N-palmitoyl phenylalanine level, Mean [2]: 3.73E-12
- N-palmitoyl proline level, Mean [2]: 7.7E-14
- N-palmitoyl serine level, Mean [2]: 1.08E-11
- N-palmitoyl tryptophan level, Mean [2]: 9.75E-13
- N-palmitoyl tyrosine level, Mean [2]: 1.99E-12
- N-palmitoyl valine level, Mean [2]: 1.52E-12
- N-stearoyl GABA level, Mean [2]: 1.48E-11
- N-stearoyl alanine level, Mean [2]: 1.04E-11
- N-stearoyl ethanolamine level, Mean [2]: 5.63E-11
- N-stearoyl glycine level, Mean [2]: 7.24E-12
- N-stearoyl leucine level, Mean [2]: 1.55E-12
- N-stearoyl methionine level, Mean [2]: 1.68E-12
- N-stearoyl phenylalanine level, Mean [2]: 3.37E-12
- N-stearoyl proline level, Mean [2]: 3.31E-14
- N-stearoyl serine level, Mean [2]: 1.35E-11
- N-stearoyl tryptophan level, Mean [2]: 3.26E-12
- N-stearoyl tyrosine level, Mean [2]: 3.04E-13
- Oleic acid level, Mean [2]: 6.83E-09
- PGE2 level, Mean [2]: 4.31E-10
- PhosphoLEA level, Mean [2]: 8.98E-12
- 2-linoleoyl glycerol Direction (relative to Veh) [3]: ↓
- 2-linoleoyl glycerol Magnitude (x Veh level) [3]: 0.73 x Veh level
- 6-ketoPGF1α Direction (relative to Veh) [3]: ↑
- 6-ketoPGF1α Magnitude (x Veh level) [3]: 1.46 x Veh level
- Linoleic acid, Direction (relative to Veh) [3]: ↓
